Experimental data as given in ChEMBL document CHEMBL5036349, “Development of potent dual PDK1/AurA kinase inhibitors for cancer therapy: Lead-optimization, structural insights, and ADME-Tox profile” (Eur J Med Chem, 2021).

Tests used:
[1] = test system: HCT-116; assay: Cytotoxicity against human HCT-116 cells at 30 uM assessed as cell proliferation rate measured after 72 hrs by MTT assay relative to control; format: functional
[2] = test system: MCF7; assay: Cytotoxicity against human MCF7 cells measured after 72 hrs by MTT assay; format: functional, cell-based; conditions: MCF7, 72 h
[3] = test system: CAKI-1; assay: Cytotoxicity against human CAKI-1 cells measured after 72 hrs by MTT assay; format: functional, cell-based; conditions: CAKI-1, 72 h
[4] = test system: 786-0; assay: Cytotoxicity against human 786-0 cells measured after 72 hrs by MTT assay; format: functional, cell-based; conditions: 786-0, 72 h
[5] = test system: IGROV-1; assay: Cytotoxicity against human IGROV-1 cells measured after 72 hrs by MTT assay; format: functional, cell-based; conditions: IGROV-1, 72 h
[6] = test system: PC-3; assay: Cytotoxicity against human PC-3 cells measured after 72 hrs by MTT assay; format: functional, cell-based; conditions: PC-3, 72 h
[7] = test system: HCT-116; assay: Cytotoxicity against human HCT-116 cells measured after 72 hrs by MTT assay; format: functional, cell-based; conditions: HCT-116, 72 h
[8] = test system: NCI-H69; assay: Cytotoxicity against human NCI-H69 cells measured after 72 hrs by MTT assay; format: functional, cell-based; conditions: NCI-H69, 72 h
[9] = test system: NCI-H82; assay: Cytotoxicity against human NCI-H82 cells measured after 72 hrs by MTT assay; format: functional, cell-based; conditions: NCI-H82, 72 h
[10] = test system: Rec1; assay: Cytotoxicity against human REC1 cells measured after 72 hrs by MTT assay; format: functional, cell-based; conditions: Rec1, 72 h
[11] = test system: TC-32; assay: Cytotoxicity against human TC-32 cells measured after 72 hrs by MTT assay; format: functional, cell-based; conditions: TC-32, 72 h
[12] = test system: SK-N-MC; assay: Cytotoxicity against human SK-N-MC cells measured after 72 hrs by MTT assay; format: functional, cell-based
[13] = Cytotoxicity against human 6647 cells measured after 72 hrs by MTT assay; format: functional, cell-based; conditions: Homo sapiens, 6647, 72 h
[14] = Cytotoxicity against human TC71 cells measured after 72 hrs by MTT assay; format: functional, cell-based; conditions: TC-71, 72 h
[15] = test system: A673; assay: Cytotoxicity against human A673 cells measured after 72 hrs by MTT assay; format: functional, cell-based; conditions: A673, 72 h
[16] = test system: TC-32; assay: Cytotoxicity against human TC-32 cells at 30 uM assessed as cell proliferation rate measured after 72 hrs by MTT assay relative to control; format: functional
[17] = test system: 6647; assay: (§1) Cytotoxicity against human 6647 cells at 30 uM assessed as cell proliferation rate measured after 72 hrs by MTT assay relative to control; format: functional
[18] = test system: TC-71; assay: (§2) Cytotoxicity against human TC71 cells at 30 uM assessed as cell proliferation rate measured after 72 hrs by MTT assay relative to control; format: functional
[19] = test system: NCI-H69; assay: Cytotoxicity against human NCI-H69 cells at 30 uM assessed as cell proliferation rate measured after 72 hrs by MTT assay relative to control; format: functional
[20] = test system: PC-3; assay: Cytotoxicity against human PC-3 cells at 30 uM assessed as cell proliferation rate measured after 72 hrs by MTT assay relative to control; format: functional
[21] = test system: IGROV-1; assay: Cytotoxicity against human IGROV-1 cells at 30 uM assessed as cell proliferation rate measured after 72 hrs by MTT assay relative to control; format: functional
[22] = test system: MCF7; assay: Cytotoxicity against human MCF7 cells at 30 uM assessed as cell proliferation rate measured after 72 hrs by MTT assay relative to control; format: functional
[23] = test system: CAKI-1; assay: Cytotoxicity against human CAKI-1 cells at 30 uM assessed as cell proliferation rate measured after 72 hrs by MTT assay relative to control; format: functional
[24] = test system: 786-0; assay: Cytotoxicity against human 786-0 cells at 30 uM assessed as cell proliferation rate measured after 72 hrs by MTT assay relative to control; format: functional
[25] = test system: NCI-H82; assay: Cytotoxicity against human NCI-H82 cells at 30 uM assessed as cell proliferation rate measured after 72 hrs by MTT assay relative to control; format: functional
[26] = test system: Rec1; assay: Cytotoxicity against human REC1 cells at 30 uM assessed as cell proliferation rate measured after 72 hrs by MTT assay relative to control; format: functional
[27] = test system: SK-N-MC; assay: Cytotoxicity against human SK-N-MC cells at 30 uM assessed as cell proliferation rate measured after 72 hrs by MTT assay relative to control; format: functional
[28] = as §1; format: functional
[29] = as §2; format: functional; conditions: TC-71
[30] = test system: A673; assay: Cytotoxicity against human A673 cells at 30 uM assessed as cell proliferation rate measured after 72 hrs by MTT assay relative to control; format: functional
[31] = test system: HEK293; assay: Cytotoxicity against HEK293 cells at 10 uM measured after 24 to 48 hrs by Cell-titer glo assay relative to control; format: cell-based; conditions: human, hek293, 10 µM, time 24-48 hrs
[32] = Cytotoxicity against hTERT cells at 10 uM measured after 24 to 48 hrs by Cell-titer glo assay relative to control; format: cell-based; conditions: human, time 24-48 hrs
[33] = molecular target: 3',5'-cyclic-AMP phosphodiesterase 4C (Homo sapiens) (UniProt Q08493); assay: Inhibition of PDE4C1 (unknown origin) at 10 uM incubated for 60 mins followed by addition of binding agent and measured after 20 mins by Fluorescence Polarization assay relative to control; conditions: time 80.0 min
Chain of 3',5'-cyclic-AMP phosphodiesterase 4C (Homo sapiens) (Q08493 whole entry): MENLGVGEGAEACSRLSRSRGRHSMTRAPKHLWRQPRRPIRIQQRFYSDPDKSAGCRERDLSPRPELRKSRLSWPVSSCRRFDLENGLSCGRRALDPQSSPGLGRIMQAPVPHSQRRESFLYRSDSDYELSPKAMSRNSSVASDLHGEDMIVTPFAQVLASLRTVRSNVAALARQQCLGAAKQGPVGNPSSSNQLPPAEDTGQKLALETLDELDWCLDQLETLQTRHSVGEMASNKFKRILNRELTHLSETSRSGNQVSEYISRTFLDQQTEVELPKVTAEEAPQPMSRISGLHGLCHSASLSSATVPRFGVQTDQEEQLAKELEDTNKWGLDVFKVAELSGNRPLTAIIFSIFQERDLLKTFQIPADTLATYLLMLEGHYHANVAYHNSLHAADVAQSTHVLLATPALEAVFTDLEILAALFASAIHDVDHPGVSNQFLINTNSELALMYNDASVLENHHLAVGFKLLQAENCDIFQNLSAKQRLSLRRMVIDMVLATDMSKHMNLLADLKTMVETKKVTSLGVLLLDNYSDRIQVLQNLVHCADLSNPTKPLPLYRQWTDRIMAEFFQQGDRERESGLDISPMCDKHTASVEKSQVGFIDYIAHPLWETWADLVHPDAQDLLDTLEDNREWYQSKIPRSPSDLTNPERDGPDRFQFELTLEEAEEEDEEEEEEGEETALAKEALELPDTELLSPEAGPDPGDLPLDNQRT

[34] = molecular target: T1, NAD-dependent protein deacetylase sirtuin-7 (Homo sapiens) (UniProt Q9NRC8); assay: Inhibition of human recombinant SIRT7 at 10 uM incubated for 20 mins followed by mixing and measure after 30 mins by Luminescence assay relative to control; conditions: time 50.0 min
T1 sequence (whole entry): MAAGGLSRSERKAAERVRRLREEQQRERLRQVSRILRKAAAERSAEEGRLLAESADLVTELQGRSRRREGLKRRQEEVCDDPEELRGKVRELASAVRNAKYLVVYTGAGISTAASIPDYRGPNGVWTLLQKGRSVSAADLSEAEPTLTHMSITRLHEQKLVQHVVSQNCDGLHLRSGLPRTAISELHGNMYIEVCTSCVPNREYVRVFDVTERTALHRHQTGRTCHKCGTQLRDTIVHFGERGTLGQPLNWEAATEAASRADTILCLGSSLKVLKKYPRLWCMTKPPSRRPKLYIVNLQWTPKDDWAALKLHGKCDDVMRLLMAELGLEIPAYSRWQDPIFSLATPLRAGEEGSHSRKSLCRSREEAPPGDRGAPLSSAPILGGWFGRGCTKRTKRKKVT

[35] = molecular target: Aurora kinase B (Homo sapiens) (UniProt Q96GD4); assay: Inhibition of Aurora B kinase (unknown origin) at 10 uM in presence of ATP incubated for 30 min followed by addition of kinase glo-reagent measured after 20 mins by Luminescence based plate reader assay relative to control; conditions: time 50.0 min
Chain of Aurora kinase B (Homo sapiens) (Q96GD4 whole entry): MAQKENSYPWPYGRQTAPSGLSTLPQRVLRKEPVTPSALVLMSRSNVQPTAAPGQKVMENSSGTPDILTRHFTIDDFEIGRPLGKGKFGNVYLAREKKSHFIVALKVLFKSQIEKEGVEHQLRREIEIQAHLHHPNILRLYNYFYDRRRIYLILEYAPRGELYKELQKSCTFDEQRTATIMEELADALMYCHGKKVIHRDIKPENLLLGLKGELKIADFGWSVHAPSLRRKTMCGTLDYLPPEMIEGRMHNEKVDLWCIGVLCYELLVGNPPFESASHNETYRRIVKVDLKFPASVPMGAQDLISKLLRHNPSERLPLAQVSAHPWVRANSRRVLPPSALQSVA

[36] = molecular target: {'v': 'hERG (KCNH2)', 'o': 'p', 'q': 'Inhibition of human ERG at 10 uM'} (Homo sapiens, UniProt Q12809); assay: Inhibition of human ERG at 10 uM relative to control
Chain of {'v': 'hERG (KCNH2)', 'o': 'p', 'q': 'Inhibition of human ERG at 10 uM'} (Q12809 whole entry): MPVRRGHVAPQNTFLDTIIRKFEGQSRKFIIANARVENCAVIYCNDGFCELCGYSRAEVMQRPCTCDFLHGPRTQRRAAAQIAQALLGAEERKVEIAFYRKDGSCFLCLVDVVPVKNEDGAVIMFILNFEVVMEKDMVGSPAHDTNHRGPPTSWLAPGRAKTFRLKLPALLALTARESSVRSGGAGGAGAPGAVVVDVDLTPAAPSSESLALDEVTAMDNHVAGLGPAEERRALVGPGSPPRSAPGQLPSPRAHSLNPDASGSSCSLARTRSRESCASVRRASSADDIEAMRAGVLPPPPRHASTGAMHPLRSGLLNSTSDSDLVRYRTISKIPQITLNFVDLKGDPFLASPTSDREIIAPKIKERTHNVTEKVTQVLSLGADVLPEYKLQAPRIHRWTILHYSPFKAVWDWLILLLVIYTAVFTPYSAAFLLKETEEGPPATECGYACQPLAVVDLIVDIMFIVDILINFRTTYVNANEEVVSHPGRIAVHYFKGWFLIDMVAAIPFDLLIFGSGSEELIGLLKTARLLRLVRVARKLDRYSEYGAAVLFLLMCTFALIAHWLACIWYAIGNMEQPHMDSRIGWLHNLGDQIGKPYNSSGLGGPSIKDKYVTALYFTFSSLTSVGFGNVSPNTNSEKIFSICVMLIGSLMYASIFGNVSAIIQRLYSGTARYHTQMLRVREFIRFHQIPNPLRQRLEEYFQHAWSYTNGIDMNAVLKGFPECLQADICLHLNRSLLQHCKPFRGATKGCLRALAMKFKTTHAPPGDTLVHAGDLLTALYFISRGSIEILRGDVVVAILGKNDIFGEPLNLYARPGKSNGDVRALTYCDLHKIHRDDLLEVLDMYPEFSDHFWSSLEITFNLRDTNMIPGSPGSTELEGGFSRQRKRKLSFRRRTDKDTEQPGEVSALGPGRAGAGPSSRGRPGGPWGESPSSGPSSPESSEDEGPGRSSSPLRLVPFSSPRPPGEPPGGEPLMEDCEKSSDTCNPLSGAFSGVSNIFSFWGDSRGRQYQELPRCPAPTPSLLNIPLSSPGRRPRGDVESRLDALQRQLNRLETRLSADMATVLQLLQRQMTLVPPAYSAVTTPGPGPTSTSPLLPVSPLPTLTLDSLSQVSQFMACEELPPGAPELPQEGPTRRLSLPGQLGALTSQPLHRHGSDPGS

[37] = test system: HCT-116; assay: Anticlonogenic activity against human HCT-116 cells assessed as reduction of cell survival at 0.5 to 20 uM measured after 10 days by SRB staining clonogenic survival assay; format: functional, cell-based; conditions: dose 0.5-20 µM, time 10.0 day
[38] = test system: TC-71; assay: Anticlonogenic activity against human TC71 cells assessed as reduction of cell survival at 0.5 to 20 uM measured after 10 days by SRB staining clonogenic survival assay; format: functional, cell-based; conditions: dose 0.5-20 µM, time 10.0 day
[39] = molecular target: Histone deacetylase 4 (Homo sapiens) (UniProt P56524); assay: Inhibition on human recombinant HDAC4 at 10 uM measured after 20 min by luminescence glo assay
Chain of Histone deacetylase 4 (Homo sapiens) (P56524 whole entry): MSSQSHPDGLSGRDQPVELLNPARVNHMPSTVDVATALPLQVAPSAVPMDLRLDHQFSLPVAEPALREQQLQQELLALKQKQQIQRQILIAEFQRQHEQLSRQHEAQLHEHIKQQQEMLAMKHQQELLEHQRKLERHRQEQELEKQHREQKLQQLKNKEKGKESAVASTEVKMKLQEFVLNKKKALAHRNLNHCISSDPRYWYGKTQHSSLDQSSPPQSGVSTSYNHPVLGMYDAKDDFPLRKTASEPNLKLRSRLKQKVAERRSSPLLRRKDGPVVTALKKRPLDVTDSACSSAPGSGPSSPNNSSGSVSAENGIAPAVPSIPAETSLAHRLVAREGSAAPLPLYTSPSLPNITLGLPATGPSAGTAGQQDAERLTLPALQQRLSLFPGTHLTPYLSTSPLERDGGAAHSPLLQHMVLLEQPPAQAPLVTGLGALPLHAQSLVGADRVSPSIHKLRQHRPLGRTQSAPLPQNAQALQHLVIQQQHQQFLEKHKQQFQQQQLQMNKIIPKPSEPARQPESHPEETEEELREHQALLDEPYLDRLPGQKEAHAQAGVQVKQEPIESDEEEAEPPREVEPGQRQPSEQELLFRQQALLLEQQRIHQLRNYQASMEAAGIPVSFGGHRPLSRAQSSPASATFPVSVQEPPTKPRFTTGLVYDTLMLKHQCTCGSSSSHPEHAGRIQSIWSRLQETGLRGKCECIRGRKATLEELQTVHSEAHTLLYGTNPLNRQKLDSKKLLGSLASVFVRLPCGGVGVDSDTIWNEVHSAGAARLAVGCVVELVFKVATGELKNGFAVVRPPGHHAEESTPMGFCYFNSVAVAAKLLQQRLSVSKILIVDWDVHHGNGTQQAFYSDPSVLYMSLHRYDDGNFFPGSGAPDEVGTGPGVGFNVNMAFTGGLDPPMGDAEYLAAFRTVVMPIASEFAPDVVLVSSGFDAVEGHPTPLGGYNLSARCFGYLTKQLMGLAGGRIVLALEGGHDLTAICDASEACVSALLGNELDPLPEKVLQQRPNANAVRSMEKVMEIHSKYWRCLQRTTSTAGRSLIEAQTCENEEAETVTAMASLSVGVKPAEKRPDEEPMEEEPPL

[40] = molecular target: T2, Protein deacetylase HDAC6 (Homo sapiens) (UniProt Q9UBN7); assay: Inhibition on human recombinant HDAC6 at 10 uM measured after 20 min by luminescence glo assay
T2 sequence (whole entry): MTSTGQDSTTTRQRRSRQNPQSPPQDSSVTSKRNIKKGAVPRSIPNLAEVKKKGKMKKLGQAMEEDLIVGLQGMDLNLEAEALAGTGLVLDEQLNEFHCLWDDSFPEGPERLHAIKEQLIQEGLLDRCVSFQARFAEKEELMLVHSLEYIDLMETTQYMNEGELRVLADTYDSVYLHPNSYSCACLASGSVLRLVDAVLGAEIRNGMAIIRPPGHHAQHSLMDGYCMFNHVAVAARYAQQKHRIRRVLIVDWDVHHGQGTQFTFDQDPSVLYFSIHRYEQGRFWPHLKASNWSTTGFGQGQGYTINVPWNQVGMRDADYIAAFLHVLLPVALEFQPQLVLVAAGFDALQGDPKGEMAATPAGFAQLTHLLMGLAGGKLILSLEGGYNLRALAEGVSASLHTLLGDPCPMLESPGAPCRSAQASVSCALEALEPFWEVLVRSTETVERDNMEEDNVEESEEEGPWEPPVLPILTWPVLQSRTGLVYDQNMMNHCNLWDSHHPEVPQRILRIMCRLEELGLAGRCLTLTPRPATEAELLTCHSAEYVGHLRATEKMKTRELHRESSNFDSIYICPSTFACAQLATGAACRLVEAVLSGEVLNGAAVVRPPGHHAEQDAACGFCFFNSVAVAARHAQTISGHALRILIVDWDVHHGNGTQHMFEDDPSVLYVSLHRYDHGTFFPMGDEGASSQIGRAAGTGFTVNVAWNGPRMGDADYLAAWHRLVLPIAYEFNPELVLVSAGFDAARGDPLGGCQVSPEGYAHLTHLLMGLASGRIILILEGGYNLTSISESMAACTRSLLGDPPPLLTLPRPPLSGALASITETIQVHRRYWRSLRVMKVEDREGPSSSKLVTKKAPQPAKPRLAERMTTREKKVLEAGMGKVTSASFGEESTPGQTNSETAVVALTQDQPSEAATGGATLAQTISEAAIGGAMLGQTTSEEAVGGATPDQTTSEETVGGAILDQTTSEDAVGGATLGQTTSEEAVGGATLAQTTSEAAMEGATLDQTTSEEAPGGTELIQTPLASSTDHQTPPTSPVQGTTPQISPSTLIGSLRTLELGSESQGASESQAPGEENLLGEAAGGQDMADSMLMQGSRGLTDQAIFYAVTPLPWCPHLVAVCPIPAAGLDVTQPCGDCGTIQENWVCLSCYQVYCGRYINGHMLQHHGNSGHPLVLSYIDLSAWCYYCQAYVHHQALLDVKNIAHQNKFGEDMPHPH

[41] = molecular target: T3, Histone deacetylase 8 (Homo sapiens) (UniProt Q9BY41); assay: Inhibition on human recombinant HDAC8 at 10 uM measured after 20 min by luminescence glo assay
T3 sequence (whole entry): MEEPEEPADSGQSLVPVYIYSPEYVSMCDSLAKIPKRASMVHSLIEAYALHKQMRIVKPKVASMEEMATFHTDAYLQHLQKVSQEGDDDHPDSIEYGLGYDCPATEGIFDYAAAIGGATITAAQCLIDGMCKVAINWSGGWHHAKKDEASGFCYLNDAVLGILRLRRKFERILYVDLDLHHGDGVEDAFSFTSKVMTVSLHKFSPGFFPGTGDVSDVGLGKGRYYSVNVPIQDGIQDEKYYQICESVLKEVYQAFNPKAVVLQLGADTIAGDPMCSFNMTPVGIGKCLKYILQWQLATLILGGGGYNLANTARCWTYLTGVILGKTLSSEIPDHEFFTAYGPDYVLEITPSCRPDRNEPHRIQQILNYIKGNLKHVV

[42] = molecular target: Histone deacetylase 9 (Homo sapiens) (UniProt Q9UKV0); assay: Inhibition on human recombinant HDAC9 at 10 uM measured after 20 min by luminescence glo assay
Chain of Histone deacetylase 9 (Homo sapiens) (Q9UKV0 whole entry): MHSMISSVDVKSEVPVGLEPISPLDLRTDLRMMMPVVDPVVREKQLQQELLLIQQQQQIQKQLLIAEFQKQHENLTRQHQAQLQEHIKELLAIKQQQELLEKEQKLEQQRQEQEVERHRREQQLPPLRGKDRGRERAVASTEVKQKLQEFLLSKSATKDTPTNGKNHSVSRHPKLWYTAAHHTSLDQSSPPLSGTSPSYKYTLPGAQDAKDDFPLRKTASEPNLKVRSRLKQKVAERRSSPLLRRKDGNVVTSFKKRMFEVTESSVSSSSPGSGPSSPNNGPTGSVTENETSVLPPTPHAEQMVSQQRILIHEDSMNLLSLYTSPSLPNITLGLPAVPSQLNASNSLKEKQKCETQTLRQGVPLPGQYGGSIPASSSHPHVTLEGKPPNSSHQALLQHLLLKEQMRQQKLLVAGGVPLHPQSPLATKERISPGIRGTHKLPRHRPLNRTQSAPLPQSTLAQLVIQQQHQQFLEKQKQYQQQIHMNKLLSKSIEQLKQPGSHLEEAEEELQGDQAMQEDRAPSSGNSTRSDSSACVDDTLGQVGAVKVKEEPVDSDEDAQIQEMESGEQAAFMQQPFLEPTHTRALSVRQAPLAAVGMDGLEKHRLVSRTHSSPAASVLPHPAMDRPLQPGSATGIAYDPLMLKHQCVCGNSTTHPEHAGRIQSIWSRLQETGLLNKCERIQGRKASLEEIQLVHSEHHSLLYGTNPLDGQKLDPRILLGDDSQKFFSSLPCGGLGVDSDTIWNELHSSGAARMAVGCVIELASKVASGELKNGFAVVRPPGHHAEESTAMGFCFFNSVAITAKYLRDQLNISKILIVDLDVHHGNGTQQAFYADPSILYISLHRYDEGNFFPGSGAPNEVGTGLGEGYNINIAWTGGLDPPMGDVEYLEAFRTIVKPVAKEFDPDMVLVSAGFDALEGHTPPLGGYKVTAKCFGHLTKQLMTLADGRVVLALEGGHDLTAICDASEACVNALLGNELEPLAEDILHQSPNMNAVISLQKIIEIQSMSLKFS

Compound	Emax at 30 µM [1] [%]	IC50 [2] [µM]	IC50 [3] [µM]	IC50 [4] [µM]	IC50 [5] [µM]	IC50 [6] [µM]	IC50 [7] [µM]	IC50 [8] [µM]	IC50 [9] [µM]	IC50 [10] [µM]	IC50 [11] [µM]	IC50 [12] [µM]	IC50 [13] [µM]	IC50 [14] [µM]	IC50 [15] [µM]	Emax at 30 µM [16] [%]	Emax at 30 µM [27] [%]	other results
O=C(O)[C@]1(Cc2cccc(Nc3nccs3)n2)CC[C@@H](Oc2cccc(Cl)c2F)CC1 [MK-5108]	40	> 30	> 30	> 30	> 30	> 30	16.3	> 30	> 30	> 30	5.6	> 30	0.6	1.6	> 30	-59		Emax [17]: 82%; Emax [18]: 70%
NCC(=O)Nc1ccc(-n2nc(C(F)(F)F)cc2-c2ccc3c(ccc4ccccc43)c2)cc1 [AR-12]	95	2.8	5	2.9	3.7	6.5	2.7	1.8	4	3.8	2	6	0.3	0.8	2.1	75	81	Emax at 30 µM [19]: 80%; Emax at 30 µM [20]: 80%; Emax at 30 µM [21]: 91%; Emax at 30 µM [22]: 89%; Emax at 30 µM [23]: 95%; Emax at 30 µM [24]: 80%; Emax at 30 µM [25]: 90%; Emax at 30 µM [26]: 90%; Emax at 30 µM [28]: 89%; Emax at 30 µM [29]: 95%; Emax at 30 µM [30]: 95%
Cc1ccc(C(=O)N[C@@H](C(=O)Nc2ccc3c(c2)/C(=C/c2cnc[nH]2)C(=O)N3)c2ccccc2)c(=O)n1Cc1ccc(F)c(F)c1		> 30	> 30	> 30	> 30	> 30	> 30	> 30	> 30	> 30	> 30	3	4.7	> 30	> 30		83	Activity [31]: < 25%; Activity [32]: < 25%; inhibition [33]: < 30%; inhibition [34]: < 30%; inhibition [35]: < 20%; inhibition at 10 µM [36]: 56%; Activity [37]: Dose-Dependent Effect; Activity [38]: Dose-Dependent Effect; inhibition [39]: < 30%; inhibition [40]: < 30%; inhibition [41]: < 30%; inhibition [42]: < 30%
